Source: PubChem BioAssay (NCI)
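Cultured in 96-well plates, cells were exposed to test compound for 48 hours across five concentrations. Abbreviation: GI50, concentration required for 50% inhibition of growth. At the TGI there is no net growth.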 The source made the active and inactive calls. Rule as the data show it: active = GI50 below about 0.43 µM; inactive = the rest.

Legend:
Experiment in all cases: DTP human tumour cell line panel, 48 h
[1] = tested on: 786-0 renal
[2] = tested on: A498 renal
[3] = tested on: A549 NSCLC
[4] = tested on: ACHN renal
[5] = tested on: BT-549 breast
[6] = tested on: CAKI-1 renal
[7] = tested on: CCRF-CEM leukemia
[8] = tested on: COLO 205 colon
[9] = tested on: DU-145 prostate
[10] = tested on: EKVX NSCLC
[11] = tested on: HCC-2998 colon
[12] = tested on: HCT-116 colon
[13] = tested on: HCT-15 colon
[14] = tested on: HL-60(TB) leukemia
[15] = tested on: HOP-62 NSCLC
[16] = tested on: HS 578T breast
[17] = tested on: HT29 colon
[18] = tested on: IGROV1 ovarian
[19] = tested on: K-562 leukemia
[20] = tested on: KM12 colon
[21] = tested on: LOX IMVI melanoma
[22] = tested on: M14 melanoma
[23] = tested on: MALME-3M melanoma
[24] = tested on: MCF7 breast
[25] = tested on: MDA-MB-231 breast
[26] = tested on: MDA-MB-435
[27] = tested on: MOLT-4 leukemia
[28] = tested on: NCI-H226 lung
[29] = tested on: NCI-H23 lung
[30] = tested on: NCI-H460 lung
[31] = tested on: NCI-H522 lung
[32] = tested on: NCI/ADR-RES ovarian
[33] = tested on: OVCAR-3 ovarian
[34] = tested on: OVCAR-4 ovarian
[35] = tested on: OVCAR-5 ovarian
[36] = tested on: OVCAR-8 ovarian
[37] = tested on: PC-3 prostate
[38] = tested on: RXF 393 renal
[39] = tested on: SF-268 CNS
[40] = tested on: SF-295 CNS
[41] = tested on: SF-539 CNS
[42] = tested on: SK-MEL-2 melanoma
[43] = tested on: SK-MEL-28 melanoma
[44] = tested on: SK-MEL-5 melanoma
[45] = tested on: SK-OV-3 ovarian
[46] = tested on: SN12C renal
[47] = tested on: SNB-19 CNS
[48] = tested on: SNB-75 CNS
[49] = tested on: SR leukemia
[50] = tested on: SW-620 colon
[51] = tested on: T-47D breast
[52] = tested on: TK-10 renal
[53] = tested on: U251 CNS
[54] = tested on: UACC-257 melanoma
[55] = tested on: UACC-62 melanoma
[56] = tested on: UO-31 renal
[57] = tested on: RPMI-8226 leukemia

Clc1ccc(CN2COc3c(ccc4cccnc34)C2)cc1Cl
GI50 [1]: 1.99 µM
TGI [1]: 5.85 µM
GI50 [2]: 1.72 µM
TGI [2]: 11.8 µM
GI50 [3]: 1.64 µM
TGI [3]: 12.9 µM
GI50 [4]: 0.525 µM
TGI [4]: 10.6 µM
GI50 [5]: 2.46 µM
TGI [5]: 17.5 µM
GI50 [6]: 3.28 µM
TGI [6]: 13.2 µM
GI50 [7]: 0.578 µM
TGI [7]: 3.69 µM
GI50 [8]: 3.18 µM
TGI [8]: 11.9 µM
GI50 [9]: 1.77 µM
TGI [9]: 14.8 µM
GI50 [10]: 1.31 µM
TGI [10]: 15.2 µM
GI50 [11]: 2.28 µM
TGI [11]: 8.77 µM
GI50 [12]: 0.712 µM
TGI [12]: 2.78 µM
GI50 [13]: 0.483 µM
TGI [13]: 15.5 µM
GI50 [14]: 0.297 µM
TGI [14]: 1.3 µM
GI50 [15]: 1.49 µM
TGI [15]: 10.9 µM
GI50 [16]: 1.96 µM
TGI [16]: 10.1 µM
GI50 [17]: 4.05 µM
TGI [17]: 15.2 µM
GI50 [18]: 1.05 µM
TGI [18]: 3.61 µM
GI50 [19]: 0.895 µM
TGI [19]: 2.68 µM
GI50 [20]: 1.2 µM
TGI [20]: 4.49 µM
GI50 [21]: 1.01 µM
TGI [21]: 2.7 µM
GI50 [22]: 1.26 µM
TGI [22]: 4.74 µM
GI50 [23]: 2.23 µM
TGI [23]: 9.16 µM
GI50 [24]: 0.697 µM
TGI [24]: 3.59 µM
GI50 [25]: 1.32 µM
TGI [25]: 9.92 µM
GI50 [26]: 1.96 µM
TGI [26]: 9.18 µM
GI50 [27]: 1.55 µM
TGI [27]: 4.89 µM
GI50 [28]: 1.28 µM
TGI [28]: 7.12 µM
GI50 [29]: 2.56 µM
TGI [29]: 14.9 µM
GI50 [30]: 0.532 µM
TGI [30]: 2.52 µM
GI50 [31]: 1.1 µM
TGI [31]: 2.61 µM
GI50 [32]: 0.394 µM
TGI [32]: 2.15 µM
GI50 [33]: 0.468 µM
TGI [33]: 12.1 µM
GI50 [34]: 0.531 µM
TGI [34]: 12.9 µM
GI50 [35]: 1.79 µM
TGI [35]: 15.2 µM
GI50 [36]: 0.73 µM
TGI [36]: 10.2 µM
GI50 [37]: 0.798 µM
TGI [37]: 11.5 µM
GI50 [38]: 1.05 µM
TGI [38]: 4.1 µM
GI50 [39]: 1.32 µM
TGI [39]: 12.1 µM
GI50 [40]: 2.35 µM
TGI [40]: 12.6 µM
GI50 [41]: 1.28 µM
TGI [41]: 3.72 µM
GI50 [42]: 2.15 µM
TGI [42]: 7.47 µM
GI50 [43]: 1.47 µM
TGI [43]: 14.2 µM
GI50 [44]: 0.971 µM
TGI [44]: 2.9 µM
GI50 [45]: 1.34 µM
TGI [45]: 13.1 µM
GI50 [46]: 2.04 µM
TGI [46]: 13.8 µM
GI50 [47]: 1.98 µM
TGI [47]: 14.3 µM
GI50 [48]: 2.36 µM
TGI [48]: 13.4 µM
GI50 [49]: 0.354 µM
TGI [49]: 1.41 µM
GI50 [50]: 1.28 µM
TGI [50]: 5.39 µM
GI50 [51]: 1.68 µM
TGI [51]: 11.3 µM
GI50 [52]: 3.35 µM
TGI [52]: 17.9 µM
GI50 [53]: 0.966 µM
TGI [53]: 13.2 µM
GI50 [54]: 2.53 µM
TGI [54]: 7.89 µM
GI50 [55]: 0.584 µM
TGI [55]: 2.41 µM
GI50 [56]: 0.4 µM
TGI [56]: 10.5 µM

CS(C)(=O)=O
outcome [1]: inactive
GI50 [2]: 42000 µM
outcome [3]: inactive
outcome [4]: inactive
outcome [5]: inactive
outcome [6]: inactive
outcome [7]: inactive
outcome [8]: inactive
outcome [9]: inactive
outcome [10]: inactive
outcome [12]: inactive
outcome [13]: inactive
outcome [14]: inactive
outcome [15]: inactive
outcome [16]: inactive
outcome [17]: inactive
outcome [18]: inactive
outcome [19]: inactive
outcome [20]: inactive
outcome [21]: inactive
outcome [22]: inactive
outcome [23]: inactive
outcome [24]: inactive
outcome [25]: inactive
outcome [26]: inactive
outcome [27]: inactive
outcome [28]: inactive
outcome [29]: inactive
outcome [30]: inactive
outcome [31]: inactive
outcome [32]: inactive
outcome [33]: inactive
outcome [34]: inactive
outcome [35]: inactive
outcome [36]: inactive
outcome [37]: inactive
outcome [57]: inactive
outcome [38]: inactive
outcome [39]: inactive
outcome [40]: inactive
outcome [41]: inactive
outcome [42]: inactive
outcome [43]: inactive
outcome [44]: inactive
outcome [45]: inactive
outcome [46]: inactive
outcome [47]: inactive
outcome [48]: inactive
outcome [49]: inactive
outcome [50]: inactive
outcome [51]: inactive
outcome [52]: inactive
outcome [53]: inactive
outcome [54]: inactive
outcome [55]: inactive
outcome [56]: inactive
